# Measurements published in patent US4011390A, “Semi-synthetic aminocyclitol aminoglycoside antibiotics and methods for the preparation thereof” (Schering-Plough Corporation, priority 1974, dated 1977).
# What was measured:
# Format in all cases: cell-based
# [1] = tested on: Bacillus subtilis; experiment: Disc test, Bauer-Kirby technique with 10 Mcg. discs; settings: strain ATCC 6633
# Excerpt: (§1) Disc Test Results (Replicate Tests) With The Mutamicins, Sisomicin and
# (§2) Bauer-Kirby Technique^1 With 10 Mcg. Discs
# (§3) ^1 Bauer, Kirby, Sherris and Turck, American Journal of Clinical
# [2] = tested on: Escherichia coli; experiment: as above; settings: 10 Mcg. discs
# Excerpt: as §1, §2, §3
# [3] = tested on: Providence 164; experiment: as above; settings: strain 164
# Excerpt: as §1, §2, §3
# [4] = tested on: Staphylococcus aureus; experiment: as above
# Excerpt: as §1, §2, §3
# [5] = tested on: Pseudomonas aeruginosa; experiment: as above
# Excerpt: as §1, §2, §3
# [6] = tested on: Klebsiella pneumoniae; experiment: as above
# Excerpt: as §1, §2, §3
# [7] = tested on: Streptococcus pyogenes; experiment: as above
# Excerpt: as §1, §2, §3
# [8] = tested on: E. coli; experiment: Activity against resistant strains; settings: E. coli W677/R55 and LA290/R55
# Excerpt: (§4) In many instances, bacterial resistance is related to the organism's ability to inactivate the antibacterial agent via enzymatic (biochemical) means. Some species inactivate aminoglycosides antibiotics by acetylating the antibacterial agent, others by phosphorylation and still others by adenylylating. Some strains have several different inactivating capabilities. Further, the inactivation reactions occur at a specific site or sites on the antibacterial agent. We have shown by the compounds of this invention that alteration of sites on the antibiotic molecule not directly involved in inactivation processes can nevertheless frustrate these inactivation processes. […] The tables illustrate that the mutamicins include compounds which are active against strains having different mechanisms of inactivation of gentamicin, sisomicin, kanamycin, neomycin and torbramycin. For example, some mutamicins are effective against strains of E. coli which contain adenylylating R factors such as E. coli W677/R55 and LA290/R55. These E. coli strains are resistant to gentamicin, sisomicin and torbramycin. Some are also effective against gentamicin, tobramycin and kanamycin resistant adenylylating strains of Klebsiella pneumoniae and also kanamycin, neomycin phosphorylating strains of E. coli and Klebsiella pneumoniae. Further, some mutamicins are effective against gentamicin and sisomicin resistant strains of Pseudomonas aeruginosa and gentamicin, sisomicin, tobramycin resistant Providence which is sensitive to kanamycin. Thus, the mutamicins afford a means for combatting strains of bacteria which have already developed a variety of mechanisms for resisting the action of many of the antibiotics known in the art or currently in commercial use.
# [9] = tested on: Pseudomonas aeruginosa; experiment: Activity against resistant strains; settings: gentamicin and sisomicin resistant strains
# Excerpt: as §4
# [10] = tested on: Klebsiella pneumoniae; experiment: Activity against resistant strains; settings: gentamicin, tobramycin and kanamycin resistant adenylylating strains
# Excerpt: as §4
# [11] = tested on: Providence; experiment: Activity against resistant strains; settings: gentamicin, sisomicin, tobramycin resistant Providence
# Excerpt: as §4
substance,measurement,setting,value
gentamicin [reference compound],Zone Size,[1],31 mm
same,Zone Size,[2]; strain 589,23 mm
same,Zone Size,[2]; strain ATCC 10536,28 mm
same,Zone Size,[2]; strain JR88,11 mm
same,Zone Size,[2]; strain JR90,0 mm
same,Zone Size,[2]; strain LA290/R55,12 mm
same,Zone Size,[2]; strain Swidinsky 4195,23 mm
same,Zone Size,[2]; strain W677/R55,13 mm
same,Zone Size,[3],11 mm
same,Zone Size,[4]; strain 59N,28 mm
same,Zone Size,[4]; strain ATCC 6538P,25 mm
same,Zone Size,[4]; strain Wood,27 mm
same,Zone Size,[4]; strain Ziegler,26 mm
same,Zone Size,[5]; strain Capetown 18,12 mm
same,Zone Size,[5]; strain D-2,23 mm
same,Zone Size,[5]; strain St. Michael 413,26 mm
same,Zone Size,[5]; strain St. Michael 762,24 mm
same,Zone Size,[5]; strain St. Michael 1262,25 mm
same,Zone Size,[5]; strain St. Michael 1395,26 mm
same,Zone Size,[5]; strain Stone 20,27 mm
same,Zone Size,[5]; strain Stone 39,25 mm
same,Zone Size,[5]; strain Stone 130,12 mm
same,Zone Size,[5]; strain Stone 138,10 mm
same,Zone Size,[6]; strain Ad 17,22 mm
same,Zone Size,[6]; strain Ad 18,25 mm
same,Zone Size,[6]; strain Georgetown 3020,11 mm
same,Zone Size,[6]; strain Georgetown 3694,13 mm
same,Zone Size,[7]; strain B-Cruz,16 mm
same,Zone Size,[7]; strain C,13 mm
same,activity against strains containing adenylylating R factors,[8],resistant
same,activity against resistant strains,[9],resistant
same,activity against resistant adenylylating strains,[10],resistant
same,activity against resistant Providence,[11],resistant
